How the values were obtained:
Type in all cases: biochemical
[1] = molecular target: C-terminal half of ValD (Streptomyces hygroscopicus, UniProt Q1L2K7); experiment: in vitro epimerase assay
[2] = molecular target: ValD (Streptomyces hygroscopicus, UniProt Q1L2K7, H229N); experiment: TLC and 1H NMR of epimerization, relative activity; settings: TLC after 30 min
[3] = molecular target: ValD (Streptomyces hygroscopicus, UniProt Q1L2K7, E107A); experiment: TLC of epimerization, relative activity; settings: TLC after 30 min
[4] = molecular target: ValD (Streptomyces hygroscopicus, UniProt Q1L2K7, H44N); experiment: TLC and 1H NMR of epimerization, relative activity; settings: TLC after 30 min
[5] = molecular target: ValD (Streptomyces hygroscopicus, UniProt Q1L2K7, H315N); experiment: TLC of epimerization, relative activity; settings: TLC after 30 min
[6] = molecular target: ValD (Streptomyces hygroscopicus, UniProt Q1L2K7, E366A); experiment: TLC and 1H NMR of epimerization, relative activity; settings: TLC after 30 min
[7] = molecular target: ValD (Streptomyces hygroscopicus, UniProt Q1L2K7, E183A); experiment: TLC and 1H NMR of epimerization, relative activity; settings: TLC after 30 min
[8] = molecular target: N-terminal half of ValD (Streptomyces hygroscopicus, UniProt Q1L2K7); experiment: in vitro epimerase assay
[9] = molecular target: ValD (Streptomyces hygroscopicus, UniProt Q1L2K7, H130N); experiment: TLC of epimerization, relative activity; settings: TLC after 30 min
[10] = molecular target: ValD (Streptomyces hygroscopicus, UniProt Q1L2K7, E291A); experiment: TLC of epimerization, relative activity; settings: TLC after 30 min

With `O=C1C[C@@](O)(CO)[C@@H](O)[C@H](O)[C@@H]1O` [2-epi-5-epi-valiolone] the “in vitro epimerase assay (data not shown)” value [1] was “truncated proteins have a significantly reduced capacity to convert 2-epi-5-epi-valiolone to 5-epi-valiolone (data not shown)”, the “TLC and 1H NMR of epimerization, relative activity” value (“TLC and 1H NMR … relative activity” below) [2] was “H130N, E183A, H229N, and E291A proteins had a comparable epimerase activity” and the “TLC of epimerization, relative activity” value [3] was “H44N, E107A, and E366A proteins had significantly reduced activities”. The “TLC and 1H NMR … relative activity” value [4] was “H44N, E107A, and E366A proteins had significantly reduced activities”, the “TLC of epimerization, relative activity” value [5] was “Mutation at H315 appeared to have moderate effect on the epimerase activity” and the “TLC and 1H NMR … relative activity” value [6] was “H44N, E107A, and E366A proteins had significantly reduced activities”. The “TLC and 1H NMR … relative activity” value [7] was “H130N, E183A, H229N, and E291A proteins had a comparable epimerase activity”, the “in vitro epimerase assay (data not shown)” value [8] was “truncated proteins have a significantly reduced capacity to convert 2-epi-5-epi-valiolone to 5-epi-valiolone (data not shown)” and the “TLC of epimerization, relative activity” value [9] was “H130N, E183A, H229N, and E291A proteins had a comparable epimerase activity”. For the same compound, the “TLC of epimerization, relative activity” value [10] was “H130N, E183A, H229N, and E291A proteins had a comparable epimerase activity”.

Source: paper PMC2737586 (Chemistry & biology, 2009)
